Results as given in ChEMBL document CHEMBL1143467, “Synthesis of potent and selective serotonin 5-HT1B receptor ligands” (Bioorg Med Chem Lett, 2005).

Assays:
[1] = target: T1, Muscarinic acetylcholine receptor M2 (Homo sapiens, UniProt P08172); experiment: Affinity towards cloned Muscarinic acetylcholine receptor M2
T1 sequence (P08172 whole entry): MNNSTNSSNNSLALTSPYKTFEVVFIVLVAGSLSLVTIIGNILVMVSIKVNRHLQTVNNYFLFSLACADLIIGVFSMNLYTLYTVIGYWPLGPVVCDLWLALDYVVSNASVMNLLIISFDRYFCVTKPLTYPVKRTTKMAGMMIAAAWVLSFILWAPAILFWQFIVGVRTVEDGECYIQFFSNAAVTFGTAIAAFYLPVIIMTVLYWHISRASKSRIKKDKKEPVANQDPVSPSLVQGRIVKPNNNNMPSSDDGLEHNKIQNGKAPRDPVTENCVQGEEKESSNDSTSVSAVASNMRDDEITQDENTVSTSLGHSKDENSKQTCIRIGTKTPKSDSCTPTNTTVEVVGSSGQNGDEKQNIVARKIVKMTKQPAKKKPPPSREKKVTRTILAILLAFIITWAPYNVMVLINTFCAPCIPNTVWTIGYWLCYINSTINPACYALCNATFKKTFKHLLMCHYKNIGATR

[2] = target: Muscarinic acetylcholine receptor M3 (Homo sapiens, UniProt P20309); experiment: Affinity towards cloned Muscarinic acetylcholine receptor M3
[3] = target: 5-hydroxytryptamine receptor 2A (Homo sapiens, UniProt P28223); experiment: In vitro binding affinity towards cloned human 5-HT2A receptor using [3H]5-carboximidotryptamine as radioligand
D(1A) dopamine receptor = D(1A) dopamine receptor (Homo sapiens, UniProt P21728); experiment: Affinity towards cloned Dopamine receptor D1
D(2) dopamine receptor = D(2) dopamine receptor (Homo sapiens, UniProt P14416); experiment: Affinity towards cloned Dopamine receptor D2
D(4) dopamine receptor = target: T2, D(4) dopamine receptor (Homo sapiens, UniProt P21917); experiment: Affinity towards cloned Dopamine receptor D4
T2 sequence (P21917 whole entry): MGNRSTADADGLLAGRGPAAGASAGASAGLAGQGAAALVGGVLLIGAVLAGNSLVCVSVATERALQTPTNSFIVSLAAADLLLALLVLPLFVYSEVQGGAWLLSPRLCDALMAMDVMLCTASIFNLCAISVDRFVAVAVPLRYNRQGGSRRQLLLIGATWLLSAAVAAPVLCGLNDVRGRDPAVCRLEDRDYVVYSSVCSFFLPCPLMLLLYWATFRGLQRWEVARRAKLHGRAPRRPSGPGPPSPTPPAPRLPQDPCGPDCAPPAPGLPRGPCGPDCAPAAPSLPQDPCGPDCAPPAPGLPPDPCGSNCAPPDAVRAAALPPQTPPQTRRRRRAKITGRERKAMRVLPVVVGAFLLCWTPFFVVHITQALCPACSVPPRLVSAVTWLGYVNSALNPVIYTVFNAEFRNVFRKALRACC

D(1B) dopamine receptor = D(1B) dopamine receptor (Homo sapiens, UniProt P21918); experiment: Affinity towards cloned Dopamine receptor D5
Histamine H1 receptor = Histamine H1 receptor (Homo sapiens, UniProt P35367); experiment: Affinity towards cloned Histamine H1 receptor
[4] = Affinity towards cloned Nicotinic acetylcholine receptor
[5] = target: 5-hydroxytryptamine receptor 6 (Homo sapiens, UniProt P50406); experiment: In vitro binding affinity towards cloned human 5-HT6 receptor using [3H]5-carboximidotryptamine as radioligand
[6] = target: 5-hydroxytryptamine receptor 1B (Homo sapiens, UniProt P28222); experiment: In vitro binding affinity towards cloned human 5-HT1B receptor using [3H]5-carboximidotryptamine as radioligand
[7] = target: T3, 5-hydroxytryptamine receptor 1A (Homo sapiens, UniProt P08908); experiment: Affinity towards cloned human 5-hydroxytryptamine 1A receptor
T3 sequence (P08908 whole entry): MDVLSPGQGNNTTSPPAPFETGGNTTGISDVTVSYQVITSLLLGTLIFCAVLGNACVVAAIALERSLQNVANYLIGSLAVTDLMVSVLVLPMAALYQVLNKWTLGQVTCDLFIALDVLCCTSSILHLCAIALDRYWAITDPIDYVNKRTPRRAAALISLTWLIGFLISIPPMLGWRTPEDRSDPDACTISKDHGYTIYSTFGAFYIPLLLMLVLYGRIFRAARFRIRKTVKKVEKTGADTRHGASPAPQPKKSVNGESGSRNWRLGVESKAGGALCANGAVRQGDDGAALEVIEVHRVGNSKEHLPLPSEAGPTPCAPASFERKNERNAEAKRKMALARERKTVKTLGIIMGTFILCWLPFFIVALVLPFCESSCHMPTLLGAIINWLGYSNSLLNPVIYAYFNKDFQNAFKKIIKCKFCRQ

Chain of Muscarinic acetylcholine receptor M3 (P20309 whole entry): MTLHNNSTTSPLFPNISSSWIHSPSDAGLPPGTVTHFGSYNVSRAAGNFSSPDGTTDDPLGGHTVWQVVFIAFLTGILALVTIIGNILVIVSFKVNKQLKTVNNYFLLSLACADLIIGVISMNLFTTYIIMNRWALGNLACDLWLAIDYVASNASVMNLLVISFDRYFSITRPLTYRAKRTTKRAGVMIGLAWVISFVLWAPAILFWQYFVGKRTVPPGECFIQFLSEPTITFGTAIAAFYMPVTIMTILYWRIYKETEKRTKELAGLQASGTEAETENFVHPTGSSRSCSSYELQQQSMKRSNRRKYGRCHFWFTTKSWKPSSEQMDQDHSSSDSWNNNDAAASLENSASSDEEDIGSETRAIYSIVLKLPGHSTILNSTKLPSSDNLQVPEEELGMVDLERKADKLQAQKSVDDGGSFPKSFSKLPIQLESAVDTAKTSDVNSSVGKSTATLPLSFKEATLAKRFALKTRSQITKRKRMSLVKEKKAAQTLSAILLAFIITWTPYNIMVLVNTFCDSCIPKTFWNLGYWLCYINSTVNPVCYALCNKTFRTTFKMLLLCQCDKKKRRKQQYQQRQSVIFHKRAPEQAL
Chain of 5-hydroxytryptamine receptor 6 (P50406 whole entry): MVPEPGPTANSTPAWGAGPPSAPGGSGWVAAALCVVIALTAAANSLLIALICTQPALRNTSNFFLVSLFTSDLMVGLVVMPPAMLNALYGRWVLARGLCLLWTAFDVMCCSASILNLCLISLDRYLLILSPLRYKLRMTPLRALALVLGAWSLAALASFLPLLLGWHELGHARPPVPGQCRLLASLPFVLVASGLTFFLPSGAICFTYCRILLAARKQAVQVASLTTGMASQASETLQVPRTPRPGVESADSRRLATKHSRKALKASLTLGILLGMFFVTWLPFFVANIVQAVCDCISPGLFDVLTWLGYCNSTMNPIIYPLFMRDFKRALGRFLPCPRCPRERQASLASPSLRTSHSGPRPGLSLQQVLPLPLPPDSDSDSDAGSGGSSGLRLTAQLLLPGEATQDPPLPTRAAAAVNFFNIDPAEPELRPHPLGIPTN
Chain of 5-hydroxytryptamine receptor 1B (P28222 whole entry): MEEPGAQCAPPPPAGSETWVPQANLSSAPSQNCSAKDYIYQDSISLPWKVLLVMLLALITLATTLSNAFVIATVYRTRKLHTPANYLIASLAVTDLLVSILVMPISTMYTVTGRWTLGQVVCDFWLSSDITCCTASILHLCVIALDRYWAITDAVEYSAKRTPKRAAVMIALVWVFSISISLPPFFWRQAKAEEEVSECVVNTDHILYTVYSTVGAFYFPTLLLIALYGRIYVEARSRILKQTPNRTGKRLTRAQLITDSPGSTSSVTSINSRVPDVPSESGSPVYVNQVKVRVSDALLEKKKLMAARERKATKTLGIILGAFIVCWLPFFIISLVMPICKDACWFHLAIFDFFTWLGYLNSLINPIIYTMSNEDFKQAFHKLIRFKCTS
Chain of 5-hydroxytryptamine receptor 2A (P28223 whole entry): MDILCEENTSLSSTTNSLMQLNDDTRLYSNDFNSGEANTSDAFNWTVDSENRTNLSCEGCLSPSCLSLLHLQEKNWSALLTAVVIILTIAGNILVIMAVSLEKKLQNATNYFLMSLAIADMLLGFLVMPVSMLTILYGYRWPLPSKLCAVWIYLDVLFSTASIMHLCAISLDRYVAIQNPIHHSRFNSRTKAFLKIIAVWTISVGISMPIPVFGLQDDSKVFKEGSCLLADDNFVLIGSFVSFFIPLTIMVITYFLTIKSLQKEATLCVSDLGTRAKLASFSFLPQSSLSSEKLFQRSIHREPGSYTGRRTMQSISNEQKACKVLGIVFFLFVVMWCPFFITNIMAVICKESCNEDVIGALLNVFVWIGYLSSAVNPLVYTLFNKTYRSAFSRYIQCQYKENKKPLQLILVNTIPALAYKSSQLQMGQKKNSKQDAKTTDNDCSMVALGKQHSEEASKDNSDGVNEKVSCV
Chain of D(1A) dopamine receptor (P21728 whole entry): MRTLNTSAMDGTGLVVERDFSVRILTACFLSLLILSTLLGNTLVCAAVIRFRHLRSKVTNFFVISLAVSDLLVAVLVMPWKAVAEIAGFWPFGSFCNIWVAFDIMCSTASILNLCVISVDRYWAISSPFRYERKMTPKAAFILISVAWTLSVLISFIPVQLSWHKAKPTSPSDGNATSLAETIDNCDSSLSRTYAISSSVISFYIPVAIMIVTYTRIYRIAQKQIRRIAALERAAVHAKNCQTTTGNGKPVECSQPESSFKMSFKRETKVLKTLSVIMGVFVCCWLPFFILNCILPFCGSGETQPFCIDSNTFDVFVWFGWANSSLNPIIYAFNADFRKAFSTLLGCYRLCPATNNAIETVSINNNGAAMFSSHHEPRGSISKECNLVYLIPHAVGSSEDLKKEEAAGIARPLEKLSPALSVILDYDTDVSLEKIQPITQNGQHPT
Chain of D(1B) dopamine receptor (P21918 whole entry): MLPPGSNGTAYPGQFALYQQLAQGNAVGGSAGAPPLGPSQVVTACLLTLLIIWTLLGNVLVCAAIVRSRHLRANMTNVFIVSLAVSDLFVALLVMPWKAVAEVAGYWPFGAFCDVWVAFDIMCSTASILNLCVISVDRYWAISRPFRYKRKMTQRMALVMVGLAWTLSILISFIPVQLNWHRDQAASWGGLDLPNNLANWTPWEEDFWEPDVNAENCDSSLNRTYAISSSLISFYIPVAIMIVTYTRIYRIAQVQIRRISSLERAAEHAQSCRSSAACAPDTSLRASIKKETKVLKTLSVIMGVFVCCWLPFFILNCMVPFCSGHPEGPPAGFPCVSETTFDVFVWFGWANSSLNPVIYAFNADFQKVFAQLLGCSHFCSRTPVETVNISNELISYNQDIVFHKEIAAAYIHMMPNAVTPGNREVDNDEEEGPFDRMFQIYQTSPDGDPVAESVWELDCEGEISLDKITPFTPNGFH
Chain of D(2) dopamine receptor (P14416 whole entry): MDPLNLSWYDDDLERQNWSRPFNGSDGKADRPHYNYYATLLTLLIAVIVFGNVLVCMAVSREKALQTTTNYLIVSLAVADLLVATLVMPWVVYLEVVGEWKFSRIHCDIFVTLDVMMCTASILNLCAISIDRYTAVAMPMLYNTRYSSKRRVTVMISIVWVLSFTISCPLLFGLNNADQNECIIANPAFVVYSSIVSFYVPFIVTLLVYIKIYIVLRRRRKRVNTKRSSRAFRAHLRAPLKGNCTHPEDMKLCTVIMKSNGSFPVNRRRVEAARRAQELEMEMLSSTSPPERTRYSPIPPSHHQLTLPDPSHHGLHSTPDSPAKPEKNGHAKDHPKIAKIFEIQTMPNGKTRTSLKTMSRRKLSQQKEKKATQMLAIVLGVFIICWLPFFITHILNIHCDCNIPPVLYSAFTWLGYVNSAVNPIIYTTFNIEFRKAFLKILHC
Chain of Histamine H1 receptor (P35367 whole entry): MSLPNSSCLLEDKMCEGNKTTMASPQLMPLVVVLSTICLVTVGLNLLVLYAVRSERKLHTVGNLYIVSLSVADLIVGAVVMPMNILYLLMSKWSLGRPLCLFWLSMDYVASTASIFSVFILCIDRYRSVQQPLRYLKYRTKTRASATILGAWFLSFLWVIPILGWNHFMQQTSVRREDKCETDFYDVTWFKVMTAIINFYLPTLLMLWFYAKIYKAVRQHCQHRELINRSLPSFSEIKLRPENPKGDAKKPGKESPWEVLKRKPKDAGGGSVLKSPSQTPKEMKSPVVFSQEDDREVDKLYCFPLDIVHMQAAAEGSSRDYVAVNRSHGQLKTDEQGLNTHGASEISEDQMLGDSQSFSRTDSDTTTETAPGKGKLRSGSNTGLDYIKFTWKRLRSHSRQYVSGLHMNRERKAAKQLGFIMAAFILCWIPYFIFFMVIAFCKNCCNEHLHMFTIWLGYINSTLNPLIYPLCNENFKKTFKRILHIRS

| SMILES | Ki [1] [µM] | Ki [2] [µM] | Ki [3] [µM] | Ki (D(1A) dopamine receptor) [µM] | Ki (D(2) dopamine receptor) [µM] | Ki (D(4) dopamine receptor) [µM] | Ki (D(1B) dopamine receptor) [µM] | Ki (Histamine H1 receptor) [µM] | Ki [4] [µM] | Ki [5] [µM] | Ki [6] [µM] | Ki [7] [µM] |
| --- | --- | --- | --- | --- | --- | --- | --- | --- | --- | --- | --- | --- |
| COc1ccc(NC(=O)N2CCN(c3ccc(F)cc3)CC2)cc1N1CCN(C)CC1 | > 10 | > 10 | 4.45 | > 10 | > 10 | > 10 | > 10 | > 10 | > 10 | > 10 | 0.0383 |  |
| COc1ccccc1N1CCC(C(=O)Nc2ccc(OC)c(N3CCN(C)CC3)c2)CC1 | > 10 | > 10 | > 10 | > 10 | > 10 | > 10 | > 10 | > 10 | > 10 |  | 0.00968 |  |
| COc1ccc(NC(=O)N2CCN(c3ccccc3F)CC2)cc1N1CCN(C)CC1 | > 10 | > 10 | > 10 | > 10 | > 10 | > 10 | > 10 | > 10 | > 10 | 0.841 | 0.0181 |  |
| COc1ccc(NC(=O)N2CCN(c3ccc(C(F)(F)F)cc3)CC2)cc1N1CCN(C)CC1 | > 10 | > 10 | 0.614 | > 10 | > 10 | > 10 | > 10 | > 10 | > 10 | 2.86 | 0.0284 |  |
| COc1ccc(NC(=O)N2CCN(c3ccc(-c4ccccc4)cc3)CC2)cc1N1CCN(C)CC1 | > 10 | > 10 | 0.171 | > 10 | > 10 | > 10 | > 10 | > 10 | > 10 | 1.43 | 0.0137 |  |
| COc1ccc(NC(=O)N2CCN(c3ccc(SC)cc3)CC2)cc1N1CCN(C)CC1 | > 10 | > 10 | 1.34 | > 10 | > 10 | > 10 | > 10 | > 10 | > 10 | > 10 | 0.0167 |  |
| COc1ccc(NC(=O)N2CCN(c3ccccc3Cl)CC2)cc1N1CCN(C)CC1 | > 10 | > 10 | 5.99 | > 10 | > 10 | > 10 | > 10 | > 10 | > 10 | 0.469 | 0.0113 |  |
| COc1ccc(NC(=O)N2CCN(c3ccc(Cl)cc3)CC2)cc1N1CCN(C)CC1 | > 10 | > 10 | 1.01 | > 10 | > 10 | > 10 | > 10 | > 10 | > 10 | 5.09 | 0.00182 |  |
| COc1ccc(NC(=O)c2ccc(-c3ccc(-c4noc(C)n4)cc3C)cc2)cc1N1CCN(C)CC1 [GR-127935] | > 10 | > 10 | 0.0427 | > 10 | > 10 | > 10 | > 10 | > 10 | > 10 | > 10 | 0.00431 | 0.07 |
